In patent publication US20060069132A1, “Azolecarboxamide herbicides” (priority 2004, published 2006):

Assays:
lambsquarters = assay: Test B pre-/postemergence herbicide test; format: in vivo, Chenopodium album; conditions: for Plant response rating (0 to 100 scale), Lambsquarters: 0 is no effect
Procedure, shortened: (§1)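 Evaluation is visual, comparing treated with control plants on a scale where 0 means no effect and 100 means full control. Treatments were preemergence, or postemergence on seedlings 2–18 cm tall, and held 13–15 days in the greenhouse.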

barnyardgrass [1] = assay: Test B pre-/postemergence herbicide test; format: in vivo, Echinochloa crus-galli; conditions: for Plant response rating (0 to 100 scale), Barnyardgrass: 0 is no effect
Procedure, shortened: (§2)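 Test chemicals in a non-phytotoxic solvent mixture with surfactant were applied preemergence to seeded species and postemergence to plants 2-18 cm tall (1- to 4-leaf stage); rice and barnyardgrass were also tested in a flooded paddy at the 2-leaf stage. Visual rating versus controls after 13-15 days in greenhouse, scale 0 (no effect) to 100 (complete control).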

pigweed = assay: Test B pre-/postemergence herbicide test; format: in vivo, Amaranthus retroflexus; conditions: for Plant response rating (0 to 100 scale), Pigweed: 0 is no effect
Procedure, shortened: as §1

barnyardgrass [2] = assay: Test B flooded paddy test; format: in vivo, Echinochloa crus-galli; conditions: scale 0 to 100 (0 no effect, 100 complete control)
Procedure, shortened: (§3)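 Paddy species grown to the 2-leaf stage under flooding; blackgrass sprayed postemergence at 2–18 cm (1- to 4-leaf stage). Plants kept in a greenhouse for 13 to 15 days, then visually rated against controls on 0 (no effect) to 100 (complete control).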

corn = assay: Test B pre-/postemergence herbicide test; format: in vivo, Zea mays; conditions: for Plant response rating (0 to 100 scale), Corn: 0 is no effect
Procedure, shortened: as §1

rice = assay: Test B flooded paddy test; format: in vivo, Oryza sativa; conditions: scale 0 to 100 (0 no effect, 100 complete control)
Procedure, shortened: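 Each value is a visual 0–100 response rating taken against controls 13 to 15 days after treatment in the greenhouse. Plants received formulated chemical postemergence at the 1- to 4-leaf stage or, in flooded paddy, at the 2-leaf stage.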

velvetleaf = assay: Test B pre-/postemergence herbicide test; format: in vivo, Abutilon theophrasti; conditions: for Plant response rating (0 to 100 scale), Velvetleaf: 0 is no effect, preemergence
Procedure, shortened: as §1

blackgrass = assay: Test B postemergence herbicide test; format: in vivo, Alopecurus myosuroides
Procedure, shortened: as §3

ducksalad = assay: Test B flooded paddy test; format: in vivo, Heteranthera limosa; conditions: scale 0 to 100 (0 no effect, 100 complete control)
Procedure, shortened: as §3

wild oat = assay: Test B postemergence herbicide test; format: in vivo, Avena fatua
Procedure, shortened: (§4)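 Read-out: visual comparison with controls, scored 0 to 100, where 100 means complete control and 0 no effect. Formulated chemicals were applied postemergence to plants 2–18 cm tall (1- to 4-leaf), or to flooded-paddy plants at the 2-leaf stage, then held 13 to 15 days under glass.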

cocklebur = assay: Test B pre-/postemergence herbicide test; format: in vivo, Xanthium strumarium; conditions: for Plant response rating (0 to 100 scale), Cocklebur: 0 is no effect
Procedure, shortened: as §2

morningglory = assay: Test B pre-/postemergence herbicide test; format: in vivo, Ipomoea coccinea; conditions: for Plant response rating (0 to 100 scale), Morningglory: 0 is no effect, 100 is complete control
Procedure, shortened: as §2

[3] = test system: small flower umbrella sedge; assay: Test B flooded paddy test; format: in vivo, Cyperus difformis; conditions: scale 0 to 100 (0 no effect, 100 complete control)
Procedure, shortened: as §3

large crabgrass = assay: Test B pre-/postemergence herbicide test; format: in vivo, Digitaria sanguinalis; conditions: for Plant response rating (0 to 100 scale), Crabgrass, Large: 0 is no effect
Procedure, shortened: as §1

giant foxtail = assay: Test B pre-/postemergence herbicide test; format: in vivo, Setaria faberi; conditions: for Plant response rating (0 to 100 scale), Foxtail, Giant: 0 is no effect
Procedure, shortened: as §1

Surinam grass = assay: Test B pre-/postemergence herbicide test; format: in vivo, Urochloa decumbens; conditions: for Plant response rating (0 to 100 scale), Surinam Grass: 0 is no effect
Procedure, shortened: as §1

wheat = assay: Test B postemergence herbicide test; format: in vivo, Triticum aestivum; parameters: key to Wheat plant response rating: 0 = no effect, 100 = complete control
Procedure, shortened: as §4

[4] = 125 g ai/ha, 100 is complete control, preemergence
[5] = 125 g ai/ha, visual rating, scale 0 (no effect) to 100 (complete control), postemergence
[6] = 500 g ai/ha, visual rating, 0 = no effect, 100 = complete control, preemergence
[7] = postemergence, 500 g ai/ha, scale 0 to 100, 0 is no effect, 100 is complete control
[8] = 125 g ai/ha, 100 is complete control
[9] = Postemergence, 500 g ai/ha, scale 0 (no effect) to 100 (complete control)
[10] = 500 g ai/ha, scale 0 to 100, 0 no effect, 100 complete control, preemergence
[11] = postemergence, 31 g ai/ha, scale 0 to 100
[12] = postemergence, 125 g ai/ha, scale 0 to 100

CCn1nc(C(C)(C)C)cc1C(=O)Nc1cc(OCCF)ccc1F [Compound 350]
10: Lambsquarters plant response rating (lambsquarters; [7]) | Velvetleaf plant response rating (velvetleaf; [7]) | Crabgrass, Large plant response rating (large crabgrass; [7]) | Surinam Grass plant response rating (Surinam grass; [7])
60: Pigweed plant response rating (pigweed; [7])
20: Corn plant response rating (corn; [7]) | Cocklebur plant response rating (cocklebur; [7])
30: Foxtail, Giant plant response rating (giant foxtail; [7])
0: Plant response rating (0 to 100 scale), Lambsquarters (lambsquarters; [4]) | Lambsquarters plant response rating (lambsquarters; [5]) | Plant response rating, Lambsquarters (lambsquarters; [6]) | Plant response rating (0 to 100 scale), Barnyardgrass (barnyardgrass [1]; [4]) | Barnyardgrass plant response rating (barnyardgrass [1]; [5]) | Plant response rating, Barnyardgrass (barnyardgrass [1]; [6]) | Barnyardgrass plant response rating (barnyardgrass [1]; [7]) | Plant response rating (0 to 100 scale), Pigweed (pigweed; [4]) | Pigweed plant response rating (pigweed; [5]) | Plant response rating, Pigweed (pigweed; [6]) | Barnyardgrass plant response rating (barnyardgrass [2]; 1000 g ai/ha) | Plant response rating (0 to 100 scale), Corn (corn; [4]) | Corn plant response rating (corn; [5]) | Plant response rating, Corn (corn; [6]) | Rice plant response rating (rice; 1000 g ai/ha) | Plant response rating (0 to 100 scale), Velvetleaf (velvetleaf; [8]) | Velvetleaf plant response rating (velvetleaf; [5]) | Blackgrass plant response rating (blackgrass; [5]) | Blackgrass plant response rating (blackgrass; [7]) | Ducksalad plant response rating (ducksalad; 1000 g ai/ha) | Oat, Wild plant response rating (wild oat; [5]) | Oat, Wild plant response rating (wild oat; [7]) | Plant response rating (0 to 100 scale), Cocklebur (cocklebur; [4]) | Cocklebur plant response rating (cocklebur; [5]) | Plant response rating, Cocklebur (cocklebur; [6]) | Plant response rating (0 to 100 scale), Morningglory (morningglory; 125 g ai/ha, preemergence) | Morningglory plant response rating (morningglory; [5]) | Plant response rating, Morningglory (morningglory; [6]) | Sedge, Umbrella plant response rating ([3]; 1000 g ai/ha) | Plant response rating (0 to 100 scale), Crabgrass, Large (large crabgrass; [4]) | Crabgrass, Large plant response rating (large crabgrass; [5]) | Plant response rating, Crabgrass, Large (large crabgrass; [6]) | Plant response rating (0 to 100 scale), Foxtail, Giant (giant foxtail; [4]) | Foxtail, Giant plant response rating (giant foxtail; [5]) | Plant response rating, Foxtail, Giant (giant foxtail; [6]) | Plant response rating (0 to 100 scale), Surinam Grass (Surinam grass; [4]) | Surinam Grass plant response rating (Surinam grass; [5]) | Plant response rating, Surinam Grass (Surinam grass; [6]) | Wheat plant response rating (wheat; [5]) | Wheat plant response rating (wheat; [7])

CCNC(=O)c1ccc(F)c(NC(=O)c2nn(C(C)(C)C)nc2C)c1 [Compound 377]
80: Sedge, Umbrella plant response rating ([3]; 1000 g ai/ha)
10: Corn plant response rating (corn; [7]) | Foxtail, Giant plant response rating (giant foxtail; [7]) | Surinam Grass plant response rating (Surinam grass; [9])
20: Velvetleaf plant response rating (velvetleaf; [5]) | Plant response rating (0 to 100 scale), Crabgrass, Large (large crabgrass; [4]) | Wheat plant response rating (wheat; [10])
70: Lambsquarters plant response rating (lambsquarters; [9])
60: Lambsquarters plant response rating (lambsquarters; [5]) | Plant response rating (0 to 100 scale), Pigweed (pigweed; [4]) | Morningglory plant response rating (morningglory; [9])
0: Plant response rating (0 to 100 scale), Lambsquarters (lambsquarters; [4]) | Plant response rating (0 to 100 scale), Barnyardgrass (barnyardgrass [1]; [4]) | Barnyardgrass plant response rating (barnyardgrass [1]; [5]) | Barnyardgrass plant response rating (barnyardgrass [1]; [7]) | Plant response rating (0 to 100 scale), Corn (corn; [4]) | Corn plant response rating (corn; [5]) | Plant response rating (0 to 100 scale), Velvetleaf (velvetleaf; [8]) | Blackgrass plant response rating (blackgrass; [5]) | Blackgrass plant response rating (blackgrass; [7]) | Oat, Wild plant response rating (wild oat; [5]) | Oat, Wild plant response rating (wild oat; [9]) | Plant response rating (0 to 100 scale), Cocklebur (cocklebur; [4]) | Cocklebur plant response rating (cocklebur; [5]) | Cocklebur plant response rating (cocklebur; [7]) | Plant response rating (0 to 100 scale), Morningglory (morningglory; 125 g ai/ha, preemergence) | Morningglory plant response rating (morningglory; [5]) | Crabgrass, Large plant response rating (large crabgrass; [5]) | Crabgrass, Large plant response rating (large crabgrass; [7]) | Plant response rating (0 to 100 scale), Foxtail, Giant (giant foxtail; [4]) | Foxtail, Giant plant response rating (giant foxtail; [5]) | Plant response rating (0 to 100 scale), Surinam Grass (Surinam grass; [4]) | Surinam Grass plant response rating (Surinam grass; [5]) | Wheat plant response rating (wheat; [5]) | Wheat plant response rating (wheat; [9])
30: Pigweed plant response rating (pigweed; [5]) | Barnyardgrass plant response rating (barnyardgrass [2]; 1000 g ai/ha)
40: Rice plant response rating (rice; 1000 g ai/ha) | Velvetleaf plant response rating (velvetleaf; [9]) | Ducksalad plant response rating (ducksalad; 1000 g ai/ha)

CCOC(=O)c1ccc(F)c(NC(=S)c2cc(C(C)(C)C)nn2CC)c1 [Compound 346]
20: Barnyardgrass plant response rating (barnyardgrass [1]; [5]) | Foxtail, Giant plant response rating (giant foxtail; [5]) | Wheat plant response rating (wheat; [5])
30: Lambsquarters plant response rating (lambsquarters; [5]) | Blackgrass plant response rating (blackgrass; [11]) | Oat, Wild plant response rating (wild oat; [11]) | Cocklebur plant response rating (cocklebur; [5])
0: Plant response rating (0 to 100 scale), Lambsquarters (lambsquarters; [4]) | Lambsquarters plant response rating (lambsquarters; [11]) | Plant response rating (0 to 100 scale), Barnyardgrass (barnyardgrass [1]; [4]) | Barnyardgrass plant response rating (barnyardgrass [1]; [11]) | Plant response rating (0 to 100 scale), Pigweed (pigweed; [4]) | Plant response rating (0 to 100 scale), Corn (corn; [4]) | Corn plant response rating (corn; [5]) | Corn plant response rating (corn; [11]) | Plant response rating (0 to 100 scale), Velvetleaf (velvetleaf; [8]) | Velvetleaf plant response rating (velvetleaf; [11]) | Plant response rating (0 to 100 scale), Cocklebur (cocklebur; [4]) | Plant response rating (0 to 100 scale), Morningglory (morningglory; 125 g ai/ha, preemergence) | Morningglory plant response rating (morningglory; [11]) | Crabgrass, Large plant response rating (large crabgrass; [5]) | Crabgrass, Large plant response rating (large crabgrass; [11]) | Foxtail, Giant plant response rating (giant foxtail; [11]) | Surinam Grass plant response rating (Surinam grass; [11])
70: Pigweed plant response rating (pigweed; [5])
40: Barnyardgrass plant response rating (barnyardgrass [2]; 1000 g ai/ha) | Rice plant response rating (rice; 1000 g ai/ha) | Blackgrass plant response rating (blackgrass; [5]) | Oat, Wild plant response rating (wild oat; [5])
60: Pigweed plant response rating (pigweed; [11]) | Ducksalad plant response rating (ducksalad; 1000 g ai/ha) | Plant response rating (0 to 100 scale), Crabgrass, Large (large crabgrass; [4])
10: Velvetleaf plant response rating (velvetleaf; [5]) | Cocklebur plant response rating (cocklebur; [11]) | Morningglory plant response rating (morningglory; [5]) | Plant response rating (0 to 100 scale), Surinam Grass (Surinam grass; [4]) | Surinam Grass plant response rating (Surinam grass; [5]) | Wheat plant response rating (wheat; [11])
80: Sedge, Umbrella plant response rating ([3]; 1000 g ai/ha)
50: Plant response rating (0 to 100 scale), Foxtail, Giant (giant foxtail; [4])

C=CCNC(=O)c1ccc(F)c(N(C(C)=O)C(=O)c2cc(C(C)(C)C)nn2CC)c1 [Compound 443]
60: Pigweed plant response rating (pigweed; [12]) | Oat, Wild plant response rating (wild oat; [9]) | Morningglory plant response rating (morningglory; [9])
100: Wheat plant response rating (wheat; [10])
30: Barnyardgrass plant response rating (barnyardgrass [1]; [9]) | Blackgrass plant response rating (blackgrass; [12]) | Crabgrass, Large plant response rating (large crabgrass; [9]) | Foxtail, Giant plant response rating (giant foxtail; [12])
20: Barnyardgrass plant response rating (barnyardgrass [1]; Postemergence, 125 g ai/ha, scale 0 (no effect) to 100 (complete control)) | Corn plant response rating (corn; [9]) | Corn plant response rating (corn; [12]) | Crabgrass, Large plant response rating (large crabgrass; [12]) | Surinam Grass plant response rating (Surinam grass; [9]) | Surinam Grass plant response rating (Surinam grass; [12])
70: Lambsquarters plant response rating (lambsquarters; [12]) | Rice plant response rating (rice; 125 g ai/ha) | Ducksalad plant response rating (ducksalad; 125 g ai/ha)
50: Velvetleaf plant response rating (velvetleaf; [9]) | Velvetleaf plant response rating (velvetleaf; [12]) | Cocklebur plant response rating (cocklebur; [12]) | Morningglory plant response rating (morningglory; [12]) | Wheat plant response rating (wheat; [9])
40: Blackgrass plant response rating (blackgrass; [9]) | Oat, Wild plant response rating (wild oat; [12]) | Foxtail, Giant plant response rating (giant foxtail; [9]) | Wheat plant response rating (wheat; [12])
80: Lambsquarters plant response rating (lambsquarters; [9]) | Pigweed plant response rating (pigweed; [9]) | Barnyardgrass plant response rating (barnyardgrass [2]; 125 g ai/ha) | Cocklebur plant response rating (cocklebur; [9]) | Sedge, Umbrella plant response rating ([3]; 125 g ai/ha)
